Reference: article PMC3166071, “Ancient Antimicrobial Peptides Kill Antibiotic-Resistant Pathogens: Australian Mammals Provide New Options” (PLoS ONE, 2011)
≈ marks a conversion by molar mass, not a printed value. Read-outs that look alike come from different tables or passages of the source. Where no end group is shown, it is not given here.

Tests used:
E. coli DH5α = assay: microbe, parasite or virus in culture; format: cell-based, Escherichia coli; conditions: for Relative potency of WAM1: against E. coli, WAM1 relative to the antibiotic of the line
Method: (§1) Peptides were synthesized and HPLC purified (AusPep Pty Ltd). The two-stage radial diffusion assay used in this study has been described elsewhere. Briefly, ∼4×10^6 of mid-logarithmic-phase organisms were mixed into 10 ml of warm 0.8% agarose containing 0.03% (w/v) Trypticase soy broth (TSB) powder buffered with 10 mM sodium phosphate, pH 7.4. The synthetic peptides were serially diluted in 0.01% acetic acid and 5 µl peptide samples were loaded in 2.5 mm diameter wells. The plates were covered, and incubated at 37°C. After 3 hours, a 10 ml overlay gel composed of 6% TSB, 0.8% agarose in 10 mM sodium phosphate buffer (pH 7.4) was poured onto the plates. The plates were incubated overnight to allow the surviving organisms to form microcolonies. The clear zone was measured using a magnified transilluminator and expressed in units (1 mm = 10 U) after subtracting the well diameter. The MIC is defined by the χ intercept of a regression line through zone diameters obtained from a series of serially diluted peptide samples. For multidrug-resistant bacteria, MICs were measured as described by micro-broth dilution in Mueller-Hinton broth (Oxoid, Hampshire, England) according to according to Clinical and Laboratory Standards Institute (CLSI) standards. The MIC measurements were performed in duplicate and the data incorporated into a final MIC using standard methods. All the bacterial strains were tested on at least two different occasions. Mid-logarithmic phase cultures of P. aeruginosa 19056 muc were diluted in Mueller–Hinton broth to yield approximately 10^6 cfu/ml. Peptides were added at the indicated concentrations and the suspensions were then incubated for different times in a shaking water bath at 35°C. At the end of each incubation time, the samples were serially diluted in buffered saline and plated onto nutrient agar with a spiral plater (Don Whitley Scientific, Australia). Colonies were counted after 17–22 h incubation at 35°C using an automatic colony counter (Don Whitley Scientific, Australia).

[1] = test system: P. aeruginosa (ATCC 27853); format: cell-based, Pseudomonas aeruginosa; conditions: ATCC 27853, 3 h, pH 7.4
Method: as §1

P. aeruginosa = format: cell-based, Pseudomonas aeruginosa; conditions: 3 h
Method: as §1

B. subtilis = format: cell-based, Bacillus subtilis
Method: as §1

S. aureus (ATCC 25923) = format: cell-based, Staphylococcus aureus; conditions: ATCC 25923, 3 h, pH 7.4
Method: as §1

[2] = test system: Sal. enterica (ATCC 14028); format: cell-based
Method: as §1

[3] = test system: Strep. pyogenes (ATCC 19615); format: cell-based
Method: as §1

Strep. uberis = format: cell-based, Streptococcus uberis
Method: as §1

C. albicans (ATCC 753) = format: cell-based, Candida albicans
Method: as §1

A. baumannii = format: cell-based, Acinetobacter baumannii; conditions: 3 h
Method: as §1

K. pneumoniae [4] = format: cell-based, Klebsiella pneumoniae; conditions: 3 h
Method: as §1

K. pneumoniae [5] = format: cell-based, Klebsiella pneumoniae; conditions: 3 h; remark: listed apart in the source
Method: Figure 3 Time course of K. pneumoniae killing by WAM1 in broth. Time marked in minutes. […] Antimicrobial assays were performed as described previously.
Peptides were synthesized and HPLC purified (AusPep Pty Ltd). The two-stage radial diffusion assay used in this study has been described elsewhere. Briefly, ∼4×10^6 of mid-logarithmic-phase organisms were mixed into 10 ml of warm 0.8% agarose containing 0.03% (w/v) Trypticase soy broth (TSB) powder buffered with 10 mM sodium phosphate, pH 7.4. The synthetic peptides were serially diluted in 0.01% acetic acid and 5 µl peptide samples were loaded in 2.5 mm diameter wells. The plates were covered, and incubated at 37°C. After 3 hours, a 10 ml overlay gel composed of 6% TSB, 0.8% agarose in 10 mM sodium phosphate buffer (pH 7.4) was poured onto the plates. The plates were incubated overnight to allow the surviving organisms to form microcolonies. The clear zone was measured using a magnified transilluminator and expressed in units (1 mm = 10 U) after subtracting the well diameter. […] For multidrug-resistant bacteria, MICs were measured as described by micro-broth dilution in Mueller-Hinton broth (Oxoid, Hampshire, England) according to according to Clinical and Laboratory Standards Institute (CLSI) standards. […] Colonies were counted after 17–22 h incubation at 35°C using an automatic colony counter (Don Whitley Scientific, Australia).

human red blood cells = format: cell-based
Method: Figure 4 Toxicity of WAM1 on human red blood cells. Haemolytic activity was determined by treating human red blood cells with different concentrations of WAM1 and haemoglobin release measured by absorbance at 450 nm. Samples were incubated at 37°C for 1 hour. PBS and 1% Tween-20 were used as negative and positive controls, representing 0% and 100% hemolytic activity respectively.

[6] = DH5α, 3 h, pH 7.4, read-out: MIC
[7] = Escherichia coli, Table 2, against E. coli, comparison of WAM1 with antibiotics, read-out: MIC

Compound: O=C(N[C@H](CO)[C@H](O)c1ccc([N+](=O)[O-])cc1)C(Cl)Cl [Chloramphenicol]
- MIC (E. coli DH5α; Escherichia coli): 12.4 µM (≈ 4.01 µg/mL)
- Relative potency of WAM1 (E. coli DH5α): 26 x

Compound: KRGFGKKLRKRLKKFRNSIKKRLKNFNVVIPIPLPG [WAM1]
- MIC (E. coli DH5α; [6]): 0.47 µM
- MIC (E. coli DH5α; DH5α, 3 h, read-out: MIC): 0.47 µM
- MIC [1]: 0.77 µM
- MIC 0 mM NaCl (P. aeruginosa): 0.9 µM
- MIC 150 mM NaCl (P. aeruginosa): 0.9 µM
- MIC 200 mM NaCl (P. aeruginosa): 0.9 µM
- MIC (B. subtilis; 3 h, pH 7.4): 1.50 µM
- MIC (S. aureus (ATCC 25923)): 1.01 µM
- MIC ([2]; ATCC 14028, 3 h, pH 7.4): 1.14 µM
- MIC ([3]; ATCC 19615, 3 h, pH 7.4): 0.66 µM
- MIC (Strep. uberis; 3 h, pH 7.4): 1.22 µM
- MIC (C. albicans (ATCC 753); ATCC 753, 3 h, pH 7.4): 1.30 µM
- MIC 0 mM NaCl (A. baumannii): 1.9 µM
- MIC 150 mM NaCl (A. baumannii): 1.9 µM
- MIC 200 mM NaCl (A. baumannii): 3.8 µM
- MIC 0 mM NaCl (K. pneumoniae [4]): 0.5 µM
- MIC 150 mM NaCl (K. pneumoniae [4]): 0.9 µM
- MIC 200 mM NaCl (K. pneumoniae [4]): 0.9 µM
- K. pneumoniae killed (K. pneumoniae [5]): 99.9%
- Haemolytic activity against human red blood cells (human red blood cells): not hemolytic

Compound: RRGFWKRLRRRLRRFGDRIRNRFRNFREKLPDPFPG [Ancestral WAM]
- MIC (E. coli DH5α; [6]): 0.41 µM
- MIC [1]: 2.06 µM
- MIC (B. subtilis; 3 h, pH 7.4): 1.56 µM
- MIC (S. aureus (ATCC 25923)): 1.42 µM
- MIC ([2]; ATCC 14028, 3 h, pH 7.4): 0.96 µM
- MIC ([3]; ATCC 19615, 3 h, pH 7.4): 0.68 µM
- MIC (Strep. uberis; 3 h, pH 7.4): 0.07 µM
- MIC (C. albicans (ATCC 753); ATCC 753, 3 h, pH 7.4): 6.45 µM

Compound: CC[C@H](C)[C@H](NC(=O)[C@H](CCCCN)NC(=O)[C@H](CCC(=O)O)NC(=O)[C@H](CCCCN)NC(=O)[C@H](CO)NC(=O)[C@H](CCCCN)NC(=O)[C@H](CCCNC(=N)N)NC(=O)[C@H](Cc1ccccc1)NC(=O)[C@H](Cc1ccccc1)NC(=O)[C@H](CC(=O)O)NC(=O)CNC(=O)[C@H](CC(C)C)NC(=O)[C@@H](N)CC(C)C)C(=O)NCC(=O)N[C@@H](CCCCN)C(=O)N[C@@H](CCC(=O)O)C(=O)N[C@@H](Cc1ccccc1)C(=O)N[C@@H](CCCCN)C(=O)N[C@@H](CCCNC(=N)N)C(=O)N[C@H](C(=O)N[C@H](C(=O)N[C@@H](CCC(N)=O)C(=O)N[C@@H](CCCNC(=N)N)C(=O)N[C@H](C(=O)N[C@@H](CCCCN)C(=O)N[C@@H](CC(=O)O)C(=O)N[C@@H](Cc1ccccc1)C(=O)N[C@@H](CC(C)C)C(=O)N[C@@H](CCCNC(=N)N)C(=O)N[C@@H](CC(N)=O)C(=O)N[C@@H](CC(C)C)C(=O)N[C@H](C(=O)N1CCC[C@H]1C(=O)N[C@@H](CCCNC(=N)N)C(=O)N[C@H](C(=O)N[C@@H](CCC(=O)O)C(=O)N[C@@H](CO)C(=O)O)[C@@H](C)O)C(C)C)[C@@H](C)CC)C(C)C)[C@@H](C)CC [LL37, reference compound]
- MIC (E. coli DH5α; E. coli DH5α, two-stage radial diffusion, 0.8% agarose, 0.03% TSB, 10 mM sodium phosphate pH 7.4, 37°C, MIC = x intercept of regression line of zone diameters, read-out: MIC): 5.57 µM (≈ 25 µg/mL)
- MIC (B. subtilis; B. subtilis, two-stage radial diffusion, 10 mM sodium phosphate pH 7.4, 37°C): 8.62 µM (≈ 38.7 µg/mL)
- MIC ([2]; Sal. enterica (ATCC 14028), two-stage radial diffusion, 10 mM sodium phosphate pH 7.4, 37°C): 4.30 µM (≈ 19.3 µg/mL)
- MIC ([3]; Strep. pyogenes (ATCC 19615), two-stage radial diffusion, 10 mM sodium phosphate pH 7.4, 37°C): >55 µM
- MIC (Strep. uberis; Strep. uberis, two-stage radial diffusion, 10 mM sodium phosphate pH 7.4, 37°C): 2.24 µM (≈ 10.1 µg/mL)
- MIC (C. albicans (ATCC 753); C. albicans (ATCC 753), two-stage radial diffusion, 10 mM sodium phosphate pH 7.4, 37°C): >56 µM

Compound: CN(C)[C@@H]1C(O)=C(C(N)=O)C(=O)[C@@]2(O)C(O)=C3C(=O)c4c(O)cccc4[C@@](C)(O)[C@H]3C[C@@H]12 [Tetracycline]
- MIC (E. coli DH5α; [7]): 4.5 µM (≈ 2 µg/mL)
- Relative potency of WAM1 (E. coli DH5α): 10 x

Compound: CC1(C)S[C@@H]2[C@H](NC(=O)[C@H](N)c3ccccc3)C(=O)N2[C@H]1C(=O)O [Ampicillin]
- MIC (E. coli DH5α; [7]): 5.7 µM (≈ 1.99 µg/mL)
- Relative potency of WAM1 (E. coli DH5α): 12 x

Compound: RTKRRIKLIKNGVKKVKDILKNNNIIILPGSNEK [PAM1]
- MIC (E. coli DH5α; [6]): 0.75 µM
- MIC [1]: 1.89 µM
- MIC (B. subtilis; 3 h, pH 7.4): 1.96 µM
- MIC (S. aureus (ATCC 25923)): 0.56 µM
- MIC ([2]; ATCC 14028, 3 h, pH 7.4): 0.47 µM
- MIC ([3]; ATCC 19615, 3 h, pH 7.4): 0.73 µM
- MIC (Strep. uberis; 3 h, pH 7.4): 0.25 µM
- MIC (C. albicans (ATCC 753); ATCC 753, 3 h, pH 7.4): >20 µM

Compound: RPWAGNGSVHRYTVLSPRLKTQ [PAM2]
- MIC (E. coli DH5α; [6]): 0.87 µM
- MIC [1]: 0.73 µM
- MIC (B. subtilis; 3 h, pH 7.4): 3.37 µM
- MIC (S. aureus (ATCC 25923)): 2.42 µM
- MIC ([2]; ATCC 14028, 3 h, pH 7.4): 1.11 µM
- MIC ([3]; ATCC 19615, 3 h, pH 7.4): 0.83 µM
- MIC (Strep. uberis; 3 h, pH 7.4): 0.51 µM
- MIC (C. albicans (ATCC 753); ATCC 753, 3 h, pH 7.4): 2.50 µM

Compound: KRGLWESLKRKATKLGDDIRNTLRNFKIKFPVPRQG [WAM2]
- MIC (E. coli DH5α; [6]): 1.46 µM
- MIC [1]: 1.29 µM
- MIC (B. subtilis; 3 h, pH 7.4): 2.14 µM
- MIC (S. aureus (ATCC 25923)): 1.39 µM
- MIC ([2]; ATCC 14028, 3 h, pH 7.4): 1.58 µM
- MIC ([3]; ATCC 19615, 3 h, pH 7.4): 0.39 µM
- MIC (Strep. uberis; 3 h, pH 7.4): 0.63 µM
- MIC (C. albicans (ATCC 753); ATCC 753, 3 h, pH 7.4): 1.47 µM
